Experimental data: patent US12102648B2, “Orally-bioavailable nucleoside analogs” (priority 2021, dated 2024)
Like-named read-outs stand apart in the source and are kept apart here.

Assay: in vitro
Format: in vitro ADME
Details: human
Experimental: The bidirectional permeability of compounds across the Caco-2 cell monolayer was assessed. The Caco-2 model is a widely used in vitro model for small intestinal absorption and potential for efflux.
Cell culture. Caco-2 cells were grown in DMEM supplemented with 10% fetal bovine serum (FBS), 1% Penicillin-Streptomycin and 1% MEM NEAA. The cells were incubated at 37° C., 5% CO2/95% air and saturated humidity. After reaching 80-90% confluency, the cells were gently detached with trypsin. Cells at passage 39 were seeded on the 24-well BD insert system at the density of 8×10^4 cells/cm^2 and cultured for 19 days with medium changed every 2-3 days. Measure the transepithelial electrical resistance (TEER) value of each well. The wells can be used only when their TEER values are greater than 600 Ohms/cm^2.
Transport assay. After removing the cell culture medium from the 24-well insert plate, the cells were rinsed with warm transport buffer. Appropriate dosing and receiving solutions were applied to the donor and receiver chambers to initiate the transport assay in apical to basolateral (A to B) or basolateral to apical (B to A) directions ([…] for apical and basolateral wells, respectively). Duplicate wells in each direction were used for the test compound and control compound. The plate was incubated in CO2 incubator at 37° C., with 5% CO2/95% air and saturated humidity without shaking. The sample after 10-minute incubation was used as the T0 sample, and the sample after 90-minute incubation was used as the T90 sample. To and T90 samples were collected from the donor and receiver side of each well at the designed timepoint, mixed with the transport buffer and acetonitrile/MeOH (1:1, v/v) and the internal standard for LC/MS/MS analysis. All samples were vortexed and centrifuged at 4000 rpm at 4° C. for 15 minutes, diluted with pure water and stored at 4° C. before bioanalysis by LC/MS/MS.
Sample analysis. The concentrations of test compounds and control compounds in Caco-2 cells were quantitatively determined by LC/MS/MS method after protein precipitation.
Calculations. The apparent permeability (Papp, cm/s), efflux ratio (ER) and recovery parameters were calculated for Caco-2 drug transport assay using the following equations:
[formula] [formula] where VR is the solution volume in the receiver chamber (0.4 mL on the apical side, 1.2 mL on the basolateral side); Area is the surface area for the insert membrane, i.e., 0.3 cm^2 for the area of the monolayer; Time is incubation time, expressed in seconds, i.e., 5400 s (90 min) for the current experiment; Co is the initial concentration of test compound or peak area ratio of control compounds in the donor chamber (μM); VD is the volume in the donor chambers (0.4 mL on the apical side, 1.2 mL on the basolateral side); CD and CR are the final concentrations of test compounds or peak area ratio of control compounds in donor and receiver chambers, respectively.
Compounds with Papp<1.0 are classified as low permeability, Papp between 1-10 are classified as medium permeability, and Papp≥10 are classified as high permeability. An efflux ratio (ER)>2 indicates the compounds are potential substrates for intestinal cell efflux transporters.

[1] = Caco-2 monolayer, apical to basolateral, 90-minute incubation, read-out: Papp, A-B
[2] = Caco-2 monolayer, basolateral to apical, 90-minute incubation, read-out: Papp, B-A
[3] = Caco-2 monolayer, ER>2 indicates potential efflux transporter substrate, read-out: ER (efflux ratio)

Row | SMILES | Papp A→B at 90 min [1] | Papp B→A at 90 min [2] | efflux ratio at 90 min [3] | Papp A→B at 90 min (Caco-2) | Papp B→A at 90 min (Caco-2) | efflux ratio at 90 min (Caco-2)
1 | N#C[C@@]1(c2ccc3c(NC(=O)c4ccccc4)ncnn23)O[C@H](COC(=O)Cc2ccccc2)[C@@H](O)[C@H]1O [Compound 105, ((2R,3S,4R,5R)-5-(4-benzamidopyrrolo[2,1-f][1,2,4]triazin-7-yl)-5-cyano-3,4-dihydroxytetrahydrofuran-2-yl)methyl 2-phenylacetate] | 0.77 ×10⁻⁶ cm/s | 1.4 ×10⁻⁶ cm/s | 1.8 |  |  | 
2 | N#C[C@@]1(c2ccc3c(NC(=O)[C@@H](N)Cc4ccc(F)cc4)ncnn23)O[C@H](CO)[C@@H](OC(=O)CC2CCCCC2)[C@H]1O [Compound 137, (2R,3S,4R,5R)-5-(4-((S)-2-amino-3-(4-fluorophenyl)propanamido)pyrrolo[2,1-f][1,2,4]triazin-7-yl)-5-cyano-4-hydroxy-2-(hydroxymethyl)tetrahydrofuran-3-yl 2-cyclohexylacetate] |  |  |  | 0.6 ×10⁻⁶ cm/s | 2.7 ×10⁻⁶ cm/s | 4.5
3 | N#C[C@@]1(c2ccc3c(NC(=O)c4ccccc4)ncnn23)O[C@H](CO)[C@@H](O)[C@H]1O [Compound 85, N-(7-((2R,3R,4S,5R)-2-cyano-3,4-dihydroxy-5-(hydroxymethyl)tetrahydrofuran-2-yl)pyrrolo[2,1-f][1,2,4]triazin-4-yl)benzamide] |  |  |  | 0.37 ×10⁻⁶ cm/s | 11 ×10⁻⁶ cm/s | 31
4 | CC(C)[C@H](N)C(=O)O[C@H]1[C@@H](O)[C@](C#N)(c2ccc3c(NC(=O)OCOC(=O)C(C)(C)C)ncnn23)O[C@@H]1COC(=O)Cc1ccccc1 [Compound 360, (2R,3S,4R,5R)-5-cyano-4-hydroxy-2-((2-phenylacetoxy)methyl)-5-(4-((((pivaloyloxy)methoxy)carbonyl)amino)pyrrolo[2,1-f][1,2,4]triazin-7-yl)tetrahydrofuran-3-yl L-valinate] | 0.49 ×10⁻⁶ cm/s | 0.16 ×10⁻⁶ cm/s | 0.33 |  |  | 
5 | CCCCC(=O)Nc1ncnn2c([C@]3(C#N)O[C@H](COC(=O)CC4CCCCC4)[C@@H](O)[C@H]3O)ccc12 [Compound 284, ((2R,3S,4R,5R)-5-cyano-3,4-dihydroxy-5-(4-pentanamidopyrrolo[2,1-f][1,2,4]triazin-7-yl)tetrahydrofuran-2-yl)methyl 2-cyclohexylacetate] |  |  |  | 1.7 ×10⁻⁶ cm/s | 0.95 ×10⁻⁶ cm/s | 0.56
6 | N#C[C@@]1(c2ccc3c(NC(=O)[C@@H](N)Cc4ccc(F)cc4)ncnn23)O[C@H](COC(=O)Cc2ccccc2)[C@@H](O)[C@H]1O [Compound 97, ((2R,3S,4R,5R)-5-(4-((S)-2-amino-3-(4-fluorophenyl)propanamido)pyrrolo[2,1-f][1,2,4]triazin-7-yl)-5-cyano-3,4-dihydroxytetrahydrofuran-2-yl)methyl 2-phenylacetate] | 3.8 ×10⁻⁶ cm/s | 6.6 ×10⁻⁶ cm/s | 1.8 |  |  | 
7 | CC(C)(C)[C@@H](N)C(=O)OC[C@H]1O[C@@](C#N)(c2ccc3c(N)ncnn23)[C@H](O)[C@@H]1O [Compound 411, ((2R,3S,4R,5R)-5-(4-aminopyrrolo[2,1-f][1,2,4]triazin-7-yl)-5-cyano-3,4-dihydroxytetrahydrofuran-2-yl)methyl (R)-2-amino-3,3-dimethylbutanoate] |  |  |  | 0.12 ×10⁻⁶ cm/s | 2.5 ×10⁻⁶ cm/s | 20.7
8 | CCC(=O)Nc1nc(NC)c2ncn([C@@H]3O[C@H](COC(C)=O)[C@@H](OC(=O)CC)[C@@]3(C)F)c2n1 [Compound 331, (2R,3R,4R,5R)-2-(acetoxymethyl)-4-fluoro-4-methyl-5-(6-(methylamino)-2-propionamido-9H-purin-9-yl)tetrahydrofuran-3-yl propionate] |  |  |  | 7.9 ×10⁻⁶ cm/s | 16 ×10⁻⁶ cm/s | 2.1
9 | CC(=O)Nc1ncnn2c([C@]3(C#N)O[C@H](COC(=O)CC4CCCCC4)[C@@H](OC(=O)[C@@H](N)C(C)C)[C@H]3O)ccc12 [Compound 348, (2R,3S,4R,5R)-5-(4-acetamidopyrrolo[2,1-f][1,2,4]triazin-7-yl)-5-cyano-2-((2-cyclohexylacetoxy)methyl)-4-hydroxytetrahydrofuran-3-yl L-valinate] |  |  |  | 0.43 ×10⁻⁶ cm/s | 13 ×10⁻⁶ cm/s | 30
10 | CCCCCOC(=O)Nc1ncnn2c([C@]3(C#N)O[C@H](COC(=O)[C@@H](N)C(C)C)[C@@H](O)[C@H]3O)ccc12 [Compound 86, ((2R,3S,4R,5R)-5-cyano-3,4-dihydroxy-5-(4-(((pentyloxy)carbonyl)amino)pyrrolo[2,1-f][1,2,4]triazin-7-yl)tetrahydrofuran-2-yl)methyl L-valinate] |  |  |  | 0.33 ×10⁻⁶ cm/s | 11 ×10⁻⁶ cm/s | 35
11 | CC(=O)OC[C@H]1O[C@@](C#N)(c2ccc3c(N)ncnn23)[C@H](O)[C@@H]1OCOC(=O)C(C)(C)C [Compound 56, {[(2R,3S,4R,5R)-2-[(acetyloxy)methyl]-5-{4-aminopyrrolo[2,1-f][1,2,4]triazin-7-yl}-5-cyano-4-hydroxyoxolan-3-yl]oxy}methyl 2,2-dimethylpropanoate] |  |  |  | 4.7 ×10⁻⁶ cm/s | 4 ×10⁻⁶ cm/s | 0.84
12 | CCCC(=O)Nc1ncnn2c([C@]3(C#N)O[C@H](COC(=O)[C@@H](N)C(C)C)[C@@H](OC(=O)CC)[C@H]3O)ccc12 [Compound 357, ((2R,3S,4R,5R)-5-(4-butyramidopyrrolo[2,1-f][1,2,4]triazin-7-yl)-5-cyano-4-hydroxy-3-(propionyloxy)tetrahydrofuran-2-yl)methyl L-valinate] |  |  |  | 3.1 ×10⁻⁶ cm/s | 6 ×10⁻⁶ cm/s | 1.9
13 | N#C[C@@]1(c2ccc3c(N)ncnn23)O[C@H](COC(=O)CC2CCS(=O)(=O)CC2)[C@@H](O)[C@H]1O [Compound 280, ((2R,3S,4R,5R)-5-(4-aminopyrrolo[2,1-f][1,2,4]triazin-7-yl)-5-cyano-3,4-dihydroxytetrahydrofuran-2-yl)methyl 2-(1,1-dioxidotetrahydro-2H-thiopyran-4-yl)acetate] |  |  |  | 0.38 ×10⁻⁶ cm/s | 0.91 ×10⁻⁶ cm/s | 2.4
14 | CC(C)(C)C(=O)OCOC(=O)Nc1ncnn2c([C@]3(C#N)O[C@H](COC(=O)[C@@H](N)Cc4ccccc4)[C@@H](OC(=O)CC4CCCCC4)[C@H]3O)ccc12 [Compound 374, (((7-((2R,3R,4S,5R)-5-(((L-phenylalanyl)oxy)methyl)-2-cyano-4-(2-cyclohexylacetoxy)-3-hydroxytetrahydrofuran-2-yl)pyrrolo[2,1-f][1,2,4]triazin-4-yl)carbamoyl)oxy)methyl pivalate] |  |  |  | 0.004 ×10⁻⁶ cm/s | 0.08 ×10⁻⁶ cm/s | 19
15 | CC(C)CC(=O)O[C@H]1[C@@H](O)[C@](C#N)(c2ccc3c(N)ncnn23)O[C@@H]1COC(=O)Cc1ccccc1 [Compound 41, (2R,3S,4R,5R)-5-(4-aminopyrrolo[2,1-f][1,2,4]triazin-7-yl)-5-cyano-4-hydroxy-2-((2-phenylacetoxy)methyl)tetrahydrofuran-3-yl 3-methylbutanoate] | 19 ×10⁻⁶ cm/s | 31 ×10⁻⁶ cm/s | 1.6 |  |  | 
16 | CC(C)(C)[C@@H](N)C(=O)OC[C@H]1O[C@@](C#N)(c2ccc3c(N)ncnn23)[C@H](O)[C@@H]1OC(=O)CC1CCCCC1 [Compound 392] |  |  |  | 5.6 ×10⁻⁶ cm/s | 16.4 ×10⁻⁶ cm/s | 3
17 | CC(C)[C@H](N)C(=O)O[C@H]1[C@@H](O)[C@](C#N)(c2ccc3c(NC(=O)OCOC(=O)C(C)(C)C)ncnn23)O[C@@H]1COC(=O)CC1CCCCC1 [Compound 361, (2R,3S,4R,5R)-5-cyano-2-((2-cyclohexylacetoxy)methyl)-4-hydroxy-5-(4-((((pivaloyloxy)methoxy)carbonyl)amino)pyrrolo[2,1-f][1,2,4]triazin-7-yl)tetrahydrofuran-3-yl L-valinate] |  |  |  | 0.15 ×10⁻⁶ cm/s | 0.05 ×10⁻⁶ cm/s | 0.33
